{"source": "patent US9249185B2", "about": "“Peptides for promoting angiogenesis and an use thereof” (INDUSTRY-ACADEMIC COOPERATION FOUNDATION, SOOKMYUNG WOMEN'S …, priority 2010, dated 2016)", "key": {"HUVECs": {"system": "HUVECs", "assay": "Migration of HUVECs through polycarbonate filter chamber", "assay_type": "cell-based, human", "details": "37° C. for 10 hours, negative control (untreated) = 100", "procedure": "In order to investigate the effect of the 7 peptides prepared in Example 1 on blood vessel formation, migration of HUVECs was measured.\nThe bottom portion of a chamber of a 24-well plate (Corning Costar, USA) having a polycarbonate filter with pores therebelow was coated with 0.5 mg/mL collagen type 1 ([…]). After adding EBM-2 containing the 7 peptides of the peptide of the present invention to the bottom portion of the chamber, HUVECs were inoculated at the upper portion of the chamber, with 1×10^5 cells per well. After incubation at 37° C. for 10 hours, the cells that had passed through the polycarbonate filter were fixed with methanol, stained with hematoxylin, and counted under a microscope."}, "[1]": {"system": "human umbilical vein endothelial cells (HUVECs)", "assay": "Proliferation of HUVECs (CyQUANT kit)", "assay_type": "cell-based", "details": "48 hours with peptide, negative control (untreated) = 100", "procedure": "In order to investigate the effect of the 7 peptides prepared in Example 1 on blood vessel formation, human umbilical vein endothelial cells (HUVECs) were treated with the peptide of the present invention and their proliferation was observed.\nHUVECs were cultured in endothelial cell basal medium-2 (EBM-2, Clonetics Co., San Diego, USA) containing 2% fetal bovine serum (FBS). The cultured HUVECs were transferred to a 96-well plate, with 1000 cells per each well. After culturing for 24 hours followed by addition of the 7 peptides of the peptide of the present invention to each well, they were further cultured for 48 hours. The cells treated with VEGF instead of the peptide of the present invention and those treated with nothing were cultured under the same condition, as positive control group and negative control group, respectively. Upon completion of the culturing, the degree of cell proliferation was measured using the CyQUANT kit (Invitrogen, USA)."}}}
{"substance": "AGES (Pep_1 Artificial Peptide for Promotion of Angiogenesis)", "values": [{"measurement": "Cell migration (%)", "setting": "HUVECs", "result": 118.0, "unit": "%"}, {"measurement": "Cell proliferation (%)", "setting": "[1]", "result": 109.6, "unit": "%"}]}
{"substance": "AGESQK (Pep_11 Artificial Peptide for Promotion of Angiogenesis)", "values": [{"measurement": "Cell migration (%)", "setting": "HUVECs", "result": 202.2, "unit": "%"}, {"measurement": "Cell proliferation (%)", "setting": "[1]", "result": 146.5, "unit": "%"}]}
{"substance": "KNAGDS (Pep_3 Artificial Peptide for Promotion of Angiogenesis)", "values": [{"measurement": "Cell migration (%)", "setting": "HUVECs", "result": 125.8, "unit": "%"}, {"measurement": "Cell proliferation (%)", "setting": "[1]", "result": 115.7, "unit": "%"}]}
{"substance": "KNAGHS (Pep_4 Artificial Peptide for Promotion of Angiogenesis)", "values": [{"measurement": "Cell migration (%)", "setting": "HUVECs", "result": 135.5, "unit": "%"}, {"measurement": "Cell proliferation (%)", "setting": "[1]", "result": 119.6, "unit": "%"}]}
{"substance": "PKAGES (Pep_2 Artificial Peptide for Promotion of Angiogenesis)", "values": [{"measurement": "Cell migration (%)", "setting": "HUVECs", "result": 159.5, "unit": "%"}, {"measurement": "Cell proliferation (%)", "setting": "[1]", "result": 104.4, "unit": "%"}]}
{"substance": "RQAGDS (Pep_5 Artificial Peptide for Promotion of Angiogenesis)", "values": [{"measurement": "Cell migration (%)", "setting": "HUVECs", "result": 165.4, "unit": "%"}, {"measurement": "Cell proliferation (%)", "setting": "[1]", "result": 207.5, "unit": "%"}]}
{"substance": "RQAGHS (Pep_6 Artificial Peptide for Promotion of Angiogenesis)", "values": [{"measurement": "Cell migration (%)", "setting": "HUVECs", "result": 138.6, "unit": "%"}, {"measurement": "Cell proliferation (%)", "setting": "[1]", "result": 138.0, "unit": "%"}]}
{"substance": "Vascular endothelial growth factor [VEGF]", "values": [{"measurement": "Cell migration (%)", "setting": "HUVECs", "result": 146.3, "unit": "%"}, {"measurement": "Cell proliferation (%)", "setting": "[1]", "result": 166.0, "unit": "%"}]}
